Experimental findings from the supplement of paper PMC10307832 are described below.

Common to all, as to experiment: relative viability (nuclei count vs DMSO), 5 days (fraction); higher = more cells survive
Compound in the test “Dovitinib + Luminespib”: CN1CCN(c2ccc3nc(-c4c(N)c5c(F)cccc5[nH]c4=O)[nH]c3c2)CC1 [Dovitinib] + CCNC(=O)c1noc(-c2cc(C(C)C)c(O)cc2O)c1-c1ccc(CN2CCOCC2)cc1 [Luminespib] (partner 0.01 µM)
An outline of the steps: (§1)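 Relative viability was taken as the ratio of nuclei in treated wells to nuclei in vehicle wells. Lung cancer cell lines in 1536-well plates received compounds by pin tool one day after seeding, either one drug alone or a fixed anchor-drug dose plus five library-drug doses (not always all listed) in √10 steps. Nuclei were counted on 4× images after 5 days of treatment, and values are medians of duplicate plates.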

Compound in the test “Dovitinib + Lapatinib”: CN1CCN(c2ccc3nc(-c4c(N)c5c(F)cccc5[nH]c4=O)[nH]c3c2)CC1 [Dovitinib] + CS(=O)(=O)CCNCc1ccc(-c2ccc3ncnc(Nc4ccc(OCc5cccc(F)c5)c(Cl)c4)c3c2)o1 [Lapatinib] (partner 2 µM)
The procedure, abridged:
as §1

Compound in the test “Dovitinib + Decitabine”: CN1CCN(c2ccc3nc(-c4c(N)c5c(F)cccc5[nH]c4=O)[nH]c3c2)CC1 [Dovitinib] + Nc1ncn([C@H]2C[C@H](O)[C@@H](CO)O2)c(=O)n1 [Decitabine] (partner 2 µM)
The procedure, abridged:
as §1

Compound in the test “Dovitinib + Olaparib”: CN1CCN(c2ccc3nc(-c4c(N)c5c(F)cccc5[nH]c4=O)[nH]c3c2)CC1 [Dovitinib] + O=C(c1cc(Cc2n[nH]c(=O)c3ccccc23)ccc1F)N1CCN(C(=O)C2CC2)CC1 [Olaparib] (partner 8 µM)
An outline of the steps:
as §1

Take NCI-H838: the relative viability with Dovitinib + Luminespib (first compound 0.02 µM) came out at 0.277; with Dovitinib + Luminespib (first compound 0.06325 µM), 0.307; with Dovitinib + Luminespib (first compound 0.2 µM) it was 0.349; in the test with Dovitinib + Luminespib (first compound 0.6325 µM), 0.25; with Dovitinib + Luminespib (first compound 2 µM) it was 0.289; with Dovitinib + Lapatinib (first compound 0.02 µM), 0.907. Moreover, the relative viability in the test with Dovitinib + Lapatinib (first compound 0.06325 µM) was determined as 1.11; in the test with Dovitinib + Lapatinib (first compound 0.2 µM), 1.05; with Dovitinib + Lapatinib (first compound 0.6325 µM) it was 0.919; in the test with Dovitinib + Lapatinib (first compound 2 µM) it was 0.97; in the test with Dovitinib + Decitabine (first compound 0.02 µM), 0.458; with Dovitinib + Decitabine (first compound 0.06325 µM), 0.452. Further, the relative viability worked out at 0.529 in the test with Dovitinib + Decitabine (first compound 0.2 µM); 0.495 with Dovitinib + Decitabine (first compound 0.6325 µM); 0.46 with Dovitinib + Decitabine (first compound 2 µM); 0.738 with Dovitinib + Olaparib (first compound 0.02 µM); 0.733 in the test with Dovitinib + Olaparib (first compound 0.06325 µM); 0.755 with Dovitinib + Olaparib (first compound 0.2 µM). Further, the results for the relative viability with Dovitinib + Olaparib (first compound 0.6325 µM) and with Dovitinib + Olaparib (first compound 2 µM) were 0.745 and 0.763, respectively.
In the case of SW 1573, the relative viability with Dovitinib + Luminespib (first compound 0.02 µM) came out at 0.264; with Dovitinib + Luminespib (first compound 0.06325 µM), 0.214; with Dovitinib + Luminespib (first compound 0.2 µM) it was 0.275; with Dovitinib + Luminespib (first compound 0.6325 µM), 0.525; in the test with Dovitinib + Luminespib (first compound 2 µM), 0.29; with Dovitinib + Lapatinib (first compound 0.02 µM), 1.18. Also, the relative viability in the test with Dovitinib + Lapatinib (first compound 0.06325 µM) worked out at 1.06; with Dovitinib + Lapatinib (first compound 0.2 µM), 1.05; in the test with Dovitinib + Lapatinib (first compound 0.6325 µM), 1.17; with Dovitinib + Lapatinib (first compound 2 µM), 1.16; with Dovitinib + Decitabine (first compound 0.02 µM), 0.479; in the test with Dovitinib + Decitabine (first compound 0.06325 µM), 0.516. Further, the relative viability worked out at 0.612 with Dovitinib + Decitabine (first compound 0.2 µM); 0.397 with Dovitinib + Decitabine (first compound 0.6325 µM); 0.629 in the test with Dovitinib + Decitabine (first compound 2 µM); 0.512 in the test with Dovitinib + Olaparib (first compound 0.02 µM); 0.525 in the test with Dovitinib + Olaparib (first compound 0.06325 µM); 0.593 with Dovitinib + Olaparib (first compound 0.2 µM). Also, the relative viability turned out to be 0.446 with Dovitinib + Olaparib (first compound 0.6325 µM) and 0.507 in the test with Dovitinib + Olaparib (first compound 2 µM).
On to PC-14, for which the relative viability with Dovitinib + Luminespib (first compound 0.02 µM) is 0.147; in the test with Dovitinib + Luminespib (first compound 0.06325 µM), 0.158; with Dovitinib + Luminespib (first compound 0.2 µM) it was 0.15; with Dovitinib + Luminespib (first compound 0.6325 µM) it was 0.17; with Dovitinib + Luminespib (first compound 2 µM), 0.16; with Dovitinib + Lapatinib (first compound 0.02 µM), 0.296. The relative viability with Dovitinib + Lapatinib (first compound 0.06325 µM) was determined as 0.336; with Dovitinib + Lapatinib (first compound 0.2 µM), 0.308; in the test with Dovitinib + Lapatinib (first compound 0.6325 µM), 0.309; with Dovitinib + Lapatinib (first compound 2 µM) it was 0.279; with Dovitinib + Decitabine (first compound 0.02 µM) it was 0.21; with Dovitinib + Decitabine (first compound 0.06325 µM), 0.224. Further, the relative viability with Dovitinib + Decitabine (first compound 0.2 µM) amounted to 0.241; in the test with Dovitinib + Decitabine (first compound 0.6325 µM), 0.217; with Dovitinib + Decitabine (first compound 2 µM) it was 0.22; with Dovitinib + Olaparib (first compound 0.02 µM), 0.291; with Dovitinib + Olaparib (first compound 0.06325 µM), 0.276; with Dovitinib + Olaparib (first compound 0.2 µM) it was 0.27. Further, the relative viability is 0.217 with Dovitinib + Olaparib (first compound 0.6325 µM) and 0.247 with Dovitinib + Olaparib (first compound 2 µM).
Consider LK-2, for which the relative viability with Dovitinib + Luminespib (first compound 0.02 µM) worked out at 0.191; in the test with Dovitinib + Luminespib (first compound 0.06325 µM), 0.162; in the test with Dovitinib + Luminespib (first compound 0.2 µM), 0.179; with Dovitinib + Luminespib (first compound 0.6325 µM), 0.219; with Dovitinib + Luminespib (first compound 2 µM) it was 0.182; with Dovitinib + Lapatinib (first compound 0.02 µM) it was 0.878. In addition, the relative viability with Dovitinib + Lapatinib (first compound 0.06325 µM) was determined as 0.914; with Dovitinib + Lapatinib (first compound 0.2 µM) it was 0.858; in the test with Dovitinib + Lapatinib (first compound 0.6325 µM), 0.83; with Dovitinib + Lapatinib (first compound 2 µM) it was 0.709; with Dovitinib + Decitabine (first compound 0.02 µM), 0.267; with Dovitinib + Decitabine (first compound 0.06325 µM) it was 0.333. Besides, the relative viability with Dovitinib + Decitabine (first compound 0.2 µM) came to 0.295; with Dovitinib + Decitabine (first compound 0.6325 µM) it was 0.384; in the test with Dovitinib + Decitabine (first compound 2 µM), 0.268; with Dovitinib + Olaparib (first compound 0.02 µM) it was 0.738; with Dovitinib + Olaparib (first compound 0.06325 µM), 0.818; with Dovitinib + Olaparib (first compound 0.2 µM), 0.676. Also, the relative viability was 0.935 with Dovitinib + Olaparib (first compound 0.6325 µM) and 0.739 in the test with Dovitinib + Olaparib (first compound 2 µM).
